Reference: patent US8741934B2, “Inhibitors of ion channels” (Pfizer Limited, priority 2007, dated 2014)

Target: T1, hSCN3A sodium channels (Homo sapiens, UniProt Q9NY46)
T1 construct: expressed in transfected cells
Experiment: hSCN3A electrophysiology, Ionworks Quattro automated platform (Table C)
Format: cell-based
Details: for inhibition at 3 µM: 3 μM compound, read-out: SCN3A % INHIB HTS IWQ 3 μM; for inhibition at 10 µM: 10 μM compound, read-out: SCN3A % INHIB HTS IWQ 10 μM
Protocol: Human Embryonic Kidney (HEK) cells were transfected with an hSCN3A construct using lipofectamine reagent (Invitrogen), using standard techniques. […] Clones were screened for expression using the whole-cell voltage-clamp technique.
HEK cells stably transfected with hSCN3A were maintained in DMEM medium supplemented with 10% heat-inactivated fetal bovine serum and 400 μg/ml G418 sulfate in an incubator at 37° C. with a humidified atmosphere of 10% CO2. […] For electrophysiological studies, cells were removed from the culture flask by brief trypsinization and replated at low density onto glass cover slips. Cells were typically used for electrophysiological experiments within 24 to 72 h after plating.
Electrophysiological assays were also conducted using the Ionworks Quattro automated electrophysiological platform (Molecular Devices Corp) (Table C). Intracellular and extracellular solutions were as described above with the following changes, 100 μg/ml amphotericin was added to the intracellular solution to perforate the membrane and allow electrical access to the cells. hSCN3A cells were grown and harvested as for PatchXpress and cells were resuspended in extracellular solution at a concentration of 3-4×10^6 cells/ml. The onboard liquid handling facility of the Ionworks Quattro was used for dispensing cells and application of test compounds. A voltage protocol was then applied that comprised of a voltage step to fully inactivate the sodium channels, followed by a brief hyperpolarized recovery period to allow partial recovery from inactivation for unblocked sodium channels, followed by a test depolarized voltage step to assess magnitude of inhibition by test compound. Compound effect was determined based on current amplitude difference between the pre-compound addition and post-compound addition scans.

T1 sequence (Q9NY46 whole entry): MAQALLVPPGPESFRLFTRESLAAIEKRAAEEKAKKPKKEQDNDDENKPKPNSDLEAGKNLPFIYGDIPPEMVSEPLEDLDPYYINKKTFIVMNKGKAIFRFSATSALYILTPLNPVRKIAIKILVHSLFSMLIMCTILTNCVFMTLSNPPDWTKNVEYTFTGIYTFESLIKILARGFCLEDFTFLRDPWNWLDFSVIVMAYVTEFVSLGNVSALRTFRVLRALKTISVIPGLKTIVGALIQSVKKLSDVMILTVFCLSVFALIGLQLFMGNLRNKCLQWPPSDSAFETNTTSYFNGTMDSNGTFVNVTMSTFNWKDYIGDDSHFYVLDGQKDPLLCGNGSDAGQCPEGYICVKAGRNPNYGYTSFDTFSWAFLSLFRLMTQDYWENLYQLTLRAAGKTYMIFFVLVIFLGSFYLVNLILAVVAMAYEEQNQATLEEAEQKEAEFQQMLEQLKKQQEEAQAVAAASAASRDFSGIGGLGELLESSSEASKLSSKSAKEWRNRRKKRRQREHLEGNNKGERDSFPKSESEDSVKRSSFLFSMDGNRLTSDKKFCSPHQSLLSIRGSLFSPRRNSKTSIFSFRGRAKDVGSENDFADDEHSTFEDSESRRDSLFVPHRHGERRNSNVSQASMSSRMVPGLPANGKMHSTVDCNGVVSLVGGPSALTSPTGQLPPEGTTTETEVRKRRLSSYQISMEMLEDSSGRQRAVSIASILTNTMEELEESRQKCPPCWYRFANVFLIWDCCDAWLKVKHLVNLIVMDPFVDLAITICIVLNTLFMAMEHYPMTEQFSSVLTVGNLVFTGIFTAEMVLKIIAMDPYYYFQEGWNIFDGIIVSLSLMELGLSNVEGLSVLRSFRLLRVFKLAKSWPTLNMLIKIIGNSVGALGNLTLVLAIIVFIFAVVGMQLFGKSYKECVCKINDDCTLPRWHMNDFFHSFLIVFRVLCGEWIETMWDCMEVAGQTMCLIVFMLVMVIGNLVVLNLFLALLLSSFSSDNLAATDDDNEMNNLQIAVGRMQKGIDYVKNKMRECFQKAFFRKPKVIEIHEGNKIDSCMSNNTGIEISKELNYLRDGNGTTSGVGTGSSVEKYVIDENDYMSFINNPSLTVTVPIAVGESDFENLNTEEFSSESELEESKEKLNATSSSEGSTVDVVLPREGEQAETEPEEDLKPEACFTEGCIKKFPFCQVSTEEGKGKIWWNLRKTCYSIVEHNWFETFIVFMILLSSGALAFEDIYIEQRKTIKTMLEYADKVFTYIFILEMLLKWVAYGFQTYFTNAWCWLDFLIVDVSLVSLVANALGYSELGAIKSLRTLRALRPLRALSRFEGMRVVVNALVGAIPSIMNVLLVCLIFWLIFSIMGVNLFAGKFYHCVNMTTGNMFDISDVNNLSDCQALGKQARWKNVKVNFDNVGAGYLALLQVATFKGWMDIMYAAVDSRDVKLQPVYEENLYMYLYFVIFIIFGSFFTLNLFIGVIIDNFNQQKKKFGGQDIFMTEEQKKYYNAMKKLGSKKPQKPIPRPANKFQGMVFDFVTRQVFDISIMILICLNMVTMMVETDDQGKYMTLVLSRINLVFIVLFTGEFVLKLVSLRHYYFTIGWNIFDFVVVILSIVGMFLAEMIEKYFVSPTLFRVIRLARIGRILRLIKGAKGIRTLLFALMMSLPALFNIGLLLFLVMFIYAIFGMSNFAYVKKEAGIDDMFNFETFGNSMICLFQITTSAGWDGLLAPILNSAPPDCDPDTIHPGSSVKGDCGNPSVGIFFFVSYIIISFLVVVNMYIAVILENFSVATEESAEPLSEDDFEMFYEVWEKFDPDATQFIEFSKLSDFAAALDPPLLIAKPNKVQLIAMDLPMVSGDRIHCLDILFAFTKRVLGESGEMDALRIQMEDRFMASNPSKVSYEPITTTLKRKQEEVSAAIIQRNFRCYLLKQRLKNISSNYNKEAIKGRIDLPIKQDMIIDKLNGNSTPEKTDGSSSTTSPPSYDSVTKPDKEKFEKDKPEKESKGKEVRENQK

With `O=C(NC(c1c(F)cccc1F)C1CC1)c1ccc(S(=O)(=O)Nc2nccs2)cc1` (stereo not drawn) [Example 140, N-[cyclopropyl(2,6-difluorophenyl)methyl]-4-[(1,3-thiazol-2-ylamino)sulfonyl]benzamide] the inhibition at 3 µM was 2.34% and the inhibition at 10 µM was 18.9%.
`CC(C)(NC(=O)c1ccc(S(=O)(=O)Nc2nccs2)cc1)c1cc(F)cc(F)c1` [Example 141, N-[1-(3,5-difluorophenyl)-1-methylethyl]-4-[(1,3-thiazol-2-ylamino)sulfonyl]benzamide] gave an inhibition at 3 µM of 6.82% and an inhibition at 10 µM of 25%.
Molecule `CCC(NC(=O)c1ccc(S(=O)(=O)Nc2nccs2)cc1)c1ccc(F)cc1` (stereo not drawn) [Example 142, N-[1-(4-fluorophenyl)propyl]-4-[(1,3-thiazol-2-ylamino)sulfonyl]benzamide] has an inhibition at 3 µM of 30.4% and an inhibition at 10 µM of 31.5%.
`CC(NC(=O)c1ccc(S(=O)(=O)Nc2nccs2)cc1)c1ccccc1Cl` (stereo not drawn) [Example 143, N-[1-(2-chlorophenyl)ethyl]-4-[(1,3-thiazol-2-ylamino)sulfonyl]benzamide] gave an inhibition at 3 µM of 16% and an inhibition at 10 µM of 32%.
`CC[C@H](NC(=O)c1ccc(S(=O)(=O)Nc2nccs2)cc1)c1ccccc1` [Example 145, N-[(1S)-1-phenylpropyl]-4-[(1,3-thiazol-2-ylamino)sulfonyl]benzamide] showed an inhibition at 3 µM of 2.05% and an inhibition at 10 µM of 19.4%.
Molecule `CC(C)(NC(=O)c1ccc(S(=O)(=O)Nc2nccs2)cc1)c1ccc(F)c(F)c1` [Example 146, N-[1-(3,4-difluorophenyl)-1-methylethyl]-4-[(1,3-thiazol-2-ylamino)sulfonyl]benzamide] has an inhibition at 3 µM of 24.3% and an inhibition at 10 µM of 27.9%.
`CC(Cc1ccc(F)cc1)NC(=O)c1ccc(S(=O)(=O)Nc2nccs2)cc1` (stereo not drawn) [Example 149, N-[2-(4-fluorophenyl)-1-methylethyl]-4-[(1,3-thiazol-2-ylamino)sulfonyl]benzamide] was tested, and the inhibition at 3 µM was 12.5% and the inhibition at 10 µM was 14.6%.
For `CC[C@@H](NC(=O)c1ccc(S(=O)(=O)Nc2nccs2)cc1)c1ccccc1` [Example 150, N-[(1R)-1-phenylpropyl]-4-[(1,3-thiazol-2-ylamino)sulfonyl]benzamide], the inhibition at 3 µM was -7.12% and the inhibition at 10 µM was 22.6%.
In the case of `CC(Cc1ccc(F)c(F)c1)NC(=O)c1ccc(S(=O)(=O)Nc2nccs2)cc1` (stereo not drawn) [Example 151, N-[2-(3,4-difluorophenyl)-1-methylethyl]-4-[(1,3-thiazol-2-ylamino)sulfonyl]benzamide], the inhibition at 3 µM was 17.4% and the inhibition at 10 µM was 12.7%.
Molecule `O=C(NCc1cccc(Cl)c1)c1ccc(S(=O)(=O)Nc2nccs2)cc1` [Example 152, N-(3-chlorobenzyl)-4-[(1,3-thiazol-2-ylamino)sulfonyl]benzamide] has an inhibition at 3 µM of 42.2% and an inhibition at 10 µM of 56.3%.
Work on `O=C(NCC1(c2ccccc2)CC1)c1ccc(S(=O)(=O)Nc2nccs2)cc1` [Example 153, N-[(1-phenylcyclopropyl)methyl]-4-[(1,3-thiazol-2-ylamino)sulfonyl]benzamide] yielded an inhibition at 3 µM of 15.9% and an inhibition at 10 µM of 32.9%.
For `Cc1ccc(OCCNC(=O)c2ccc(S(=O)(=O)Nc3nccs3)cc2)cc1` [Example 154, N-[2-(4-methylphenoxy)ethyl]-4-[(1,3-thiazol-2-ylamino)sulfonyl]benzamide], the inhibition at 3 µM was 28% and the inhibition at 10 µM was 30.8%.
Molecule `CC(CNC(=O)c1ccc(S(=O)(=O)Nc2nccs2)cc1)c1ccccc1` (stereo not drawn) [Example 155, N-(2-phenylpropyl)-4-[(1,3-thiazol-2-ylamino)sulfonyl]benzamide] has an inhibition at 3 µM of 30.1% and an inhibition at 10 µM of 40.8%.
With `Cc1cc(CC(NC(=O)c2ccc(S(=O)(=O)Nc3nccs3)cc2)c2ccc(F)cc2)on1` (stereo not drawn) [Example 156, N-[1-(4-fluorophenyl)-2-(3-methylisoxazol-5-yl)ethyl]-4-[(1,3-thiazol-2-ylamino)sulfonyl]benzamide] the inhibition at 3 µM was 13.3% and the inhibition at 10 µM was 30.3%.
For `COc1ccccc1CC1(NC(=O)c2ccc(S(=O)(=O)Nc3nccs3)cc2)CC1` [Example 157, N-[1-(2-methoxybenzyl)cyclopropyl]-4-[(1,3-thiazol-2-ylamino)sulfonyl]benzamide], the inhibition at 3 µM was 11.3% and the inhibition at 10 µM was 15.3%.
`COc1ccc(C2(NC(=O)c3ccc(S(=O)(=O)Nc4nccs4)cc3)CC2)cc1` [Example 160, N-[1-(4-methoxyphenyl)cyclopropyl]-4-[(1,3-thiazol-2-ylamino)sulfonyl]benzamide] gave an inhibition at 3 µM of 15.6% and an inhibition at 10 µM of 14.8%.
With `CC(CNC(=O)c1ccc(S(=O)(=O)Nc2nccs2)cc1)Oc1ccccc1` (stereo not drawn) [Example 161, N-(2-phenoxypropyl)-4-[(1,3-thiazol-2-ylamino)sulfonyl]benzamide] the inhibition at 3 µM was 30.3% and the inhibition at 10 µM was 32.4%.
Work on `COc1ccc(CC2(NC(=O)c3ccc(S(=O)(=O)Nc4nccs4)cc3)CC2)cc1` [Example 162, N-[1-(4-methoxybenzyl)cyclopropyl]-4-[(1,3-thiazol-2-ylamino)sulfonyl]benzamide] yielded an inhibition at 3 µM of 28% and an inhibition at 10 µM of 13.7%.
`COc1cccc(C2(NC(=O)c3ccc(S(=O)(=O)Nc4nccs4)cc3)CC2)c1` [Example 164, N-[1-(3-methoxyphenyl)cyclopropyl]-4-[(1,3-thiazol-2-ylamino)sulfonyl]benzamide] showed an inhibition at 3 µM of 16.6% and an inhibition at 10 µM of 24.1%.
For `COc1cccc(CCNC(=O)c2ccc(S(=O)(=O)Nc3nccs3)cc2)c1` [Example 166, N-[2-(3-methoxyphenyl)ethyl]-4-[(1,3-thiazol-2-ylamino)sulfonyl]benzamide], the inhibition at 3 µM was 30.6% and the inhibition at 10 µM was 36.3%.
Molecule `O=C(NCCOc1ccccc1F)c1ccc(S(=O)(=O)Nc2nccs2)cc1` [Example 167, N-[2-(2-fluorophenoxy)ethyl]-4-[(1,3-thiazol-2-ylamino)sulfonyl]benzamide] has an inhibition at 3 µM of 30.8% and an inhibition at 10 µM of 43%.
`O=C(NCCOc1ccccc1)c1ccc(S(=O)(=O)Nc2nccs2)cc1` [Example 168, N-(2-phenoxyethyl)-4-[(1,3-thiazol-2-ylamino)sulfonyl]benzamide] gave an inhibition at 3 µM of 31.4% and an inhibition at 10 µM of 39.3%.
`COc1ccc(CCNC(=O)c2ccc(S(=O)(=O)Nc3nccs3)cc2)cc1` [Example 169, N-[2-(4-methoxyphenyl)ethyl]-4-[(1,3-thiazol-2-ylamino)sulfonyl]benzamide] showed an inhibition at 3 µM of 35.3% and an inhibition at 10 µM of 27.3%.
`O=C(NCc1ccccc1)c1ccc(S(=O)(=O)Nc2nccs2)cc1` [Example 171, N-benzyl-4-[(1,3-thiazol-2-ylamino)sulfonyl]benzamide] was tested, and the inhibition at 3 µM was 39.5% and the inhibition at 10 µM was 52.8%.
In the case of `CCc1ccc(C)nc1NC(=O)c1ccc(S(=O)(=O)Nc2nccs2)cc1` [Example 178, N-(3-ethyl-6-methylpyridin-2-yl)-4-[(1,3-thiazol-2-ylamino)sulfonyl]benzamide], the inhibition at 3 µM was 2.71% and the inhibition at 10 µM was 1.55%.
For `O=C(N[C@@H]1COC[C@@H]1c1ccc(F)cc1)c1ccc(S(=O)(=O)Nc2nccs2)cc1` [Example 179, N-[(3S,4R)-4-(4-fluorophenyl)tetrahydrofuran-3-yl]-4-[(1,3-thiazol-2-ylamino)sulfonyl]benzamide], the inhibition at 3 µM was 9.95% and the inhibition at 10 µM was 15.9%.
Work on `Cc1ccnc(NC(=O)c2ccc(S(=O)(=O)Nc3nccs3)cc2)c1` [Example 181, N-(4-methylpyridin-2-yl)-4-[(1,3-thiazol-2-ylamino)sulfonyl]benzamide] yielded an inhibition at 3 µM of -12.2% and an inhibition at 10 µM of 11.2%.
Molecule `O=C(N[C@H](CO)Cc1ccccc1)c1ccc(S(=O)(=O)Nc2nccs2)cc1` [Example 182, N-[(1S)-1-benzyl-2-hydroxyethyl]-4-[(1,3-thiazol-2-ylamino)sulfonyl]benzamide] has an inhibition at 3 µM of 4.7% and an inhibition at 10 µM of 4.83%.
`Cc1noc(C(NC(=O)c2ccc(S(=O)(=O)Nc3nccs3)cc2)c2ccccc2)n1` (stereo not drawn) [Example 183, N-[(3-methyl-1,2,4-oxadiazol-5-yl)(phenyl)methyl]-4-[(1,3-thiazol-2-ylamino)sulfonyl]benzamide] gave an inhibition at 3 µM of 8.9% and an inhibition at 10 µM of 1.34%.
Molecule `Cc1cnc(NC(=O)c2ccc(S(=O)(=O)Nc3nccs3)cc2)c(C)c1` [Example 184, N-(3,5-dimethylpyridin-2-yl)-4-[(1,3-thiazol-2-ylamino)sulfonyl]benzamide] has an inhibition at 3 µM of 29% and an inhibition at 10 µM of 20.8%.
`O=C(N[C@@H](CO)Cc1ccccc1)c1ccc(S(=O)(=O)Nc2nccs2)cc1` [Example 185, N-[(1R)-1-benzyl-2-hydroxyethyl]-4-[(1,3-thiazol-2-ylamino)sulfonyl]benzamide] showed an inhibition at 3 µM of 20.9% and an inhibition at 10 µM of 20.8%.
Molecule `CC(C)N(Cc1ccccc1)C(=O)c1ccc(S(=O)(=O)Nc2nccs2)cc1` [Example 187, N-benzyl-N-isopropyl-4-[(1,3-thiazol-2-ylamino)sulfonyl]benzamide] has an inhibition at 3 µM of 5.69% and an inhibition at 10 µM of 4.2%.
Molecule `C[C@@H]([C@H](O)c1ccccc1)N(C)C(=O)c1ccc(S(=O)(=O)Nc2nccs2)cc1` [Example 188, N-[(1S,2R)-2-hydroxy-1-methyl-2-phenylethyl]-N-methyl-4-[(1,3-thiazol-2-ylamino)sulfonyl]benzamide] has an inhibition at 3 µM of 14.5% and an inhibition at 10 µM of 1.03%.
